Experimental data from PubChem BioAssay AID602254 (Broad Institute, 2012).
Activity calls are given as the source filed them.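 Rule for the calls: active = fitted half-maximal concentration no higher than twice the top valid tested dose, with signal falling; inconclusive = flat curve with 30 to 70% inhibition, or poor fit; inactive = the rest.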

Each compound was assayed against Golgi-associated PDZ and coiled-coil motif-containing protein (Homo sapiens) (UniProt Q9HD26) (assay: blockers of CAL PDZ–TMR peptide complex – biochemical, fluorescence polarization, untagged CAL PDZ, cherry-pick, set 2, dose response (AID 602254;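 note: potency of inhibitors that displace the labelled peptide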)). Conditions: Purified CAL PDZ.

Structure (SMILES)	AC50
CN(C)S(=O)(=O)c1cccc(COc2ncnc3c(Cl)cc(Cl)cc23)c1	> 120 µM (inactive)
OCCC1CN(Cc2ccc3nsnc3c2)CCN1C1CCCCC1 (centres undefined)	> 120 µM (inactive)
Cc1cc(F)ccc1NC(=O)c1cc(S(=O)(=O)N2CCCC2)cn1C	> 120 µM (inactive)
CCN(CC)CCn1c(=S)[nH]c2ccc(Br)cc2c1=O	> 120 µM (inactive)
CCN(CC)c1ccc(N2C(=O)CSC2=S)cc1	> 120 µM (inactive)
COc1ccc(CC2CCOC2=O)cc1 (centres undefined)	> 120 µM (inactive)

Other lines, results leading:

AC50	Structure (SMILES)
> 120 µM (inactive)	Cc1ccc2nc(COC(=O)c3ccc(Cl)nc3)cc(=O)n2c1
> 120 µM (inactive)	CC(=O)N1CCc2cc(S(=O)(=O)NC(C(=O)NCc3ccccc3)C(C)C)ccc21 (centres undefined)
> 120 µM (inactive)	Cc1ccc(C)c(NC(=O)CN(C)C(=O)c2ccc3c(=O)n4c(nc3c2)CCC4)c1
> 120 µM (inactive)	Cc1c(NS(=O)(=O)c2ccc(S(=O)(=O)c3ccccc3)s2)c(=O)n(-c2ccccc2)n1C
> 120 µM (inactive)	Cc1cc(NC(=O)c2ccc(C#N)cc2)n(-c2ccccn2)n1
> 120 µM (inactive)	Cc1cc(NC(=O)c2c(Br)c(C)nn2C)no1
> 120 µM (inactive)	Cc1cccc(OCC(=O)OCC(=O)Nc2ccc(Cl)cn2)c1
> 120 µM (inactive)	CN(Cc1ccc(Cl)s1)C(=O)CNC(=O)CNC(=O)c1ccc(Cl)cc1Cl
